Results on six compounds are retold here after patent US10464893B2, “Derivatives of pyrrole-2,5-diones having a fungicidal activity, their agronomical compositions and use thereof” (ISAGRO S.p.A., priority 2016, dated 2019).

Experiment [1] deals with Uromyces appendiculatus. As to the kind of experiment: Preventive activity (7 days) against Uromyces appendiculatus on beans. The experiment is classed as in vivo. The note with it: leaf spray on bean plants, inoculation 7 days after treatment, reduction of diseased leaf area vs non-treated (100=total effectiveness). The method, then: Determination of the Preventive Activity (7 Days) of Compounds Having Formula (I) Against Uromyces appendiculatus on Beans
Leaves of bean plants, grown in pots, in a conditioned environment (20±1° C., 70% of R.H.), were treated by spraying both sides with the products under examination.
7 days after the treatment, the plants were inoculated with an aqueous suspension of spores of Uromyces appendiculatus (200,000 spores/cc) by spraying on both sides of the leaves with a compressed air gun.
(§1) After remaining 24 hours in a humidity saturated environment, at 21° C., the plants were transferred for the incubation period (7 days) to a conditioned environment at 70% R.H. and at 24° C.
(§2) After this period, the external symptoms of the pathogen appeared and it was consequently possible to proceed with a visual evaluation of the intensity of the infection.
(§3) The fungicidal activity is expressed as a reduction percentage, with respect to non-treated seedlings, in the area of the leaves affected by the disease (100=total effectiveness, 0=zero effectiveness).
Table 3 indicates the results obtained for the compounds tested, compared with the reference product Domark® (Tetraconazole).

For experiment [2], the system named is Plasmopara viticola. As to the kind of experiment: Preventive activity (7 days) against Plasmopara viticola on vines. Format: in vivo. The note with it: leaf spray on vine plants, inoculation 7 days after treatment, reduction of diseased leaf area vs non-treated (100=total effectiveness). The protocol: Determination of the Preventive Activity (7 Days) of Compounds Having Formula (I) Against Plasmopara viticola on Vines
Leaves of vine plants, grown in pots, in a conditioned environment (20±1° C., 70% of R.H.), were treated by spraying both sides with the products under examination.
7 days after the treatment, the plants were inoculated with an aqueous suspension of spores of Plasmopara viticola (200,000 spores/cc) by spraying on both sides of the leaves with a compressed air gun.
as §1, §2, §3
Table 2 indicates the results obtained for the compounds tested, compared with the reference product Mancozeb (polymeric complex of manganese ethylenebisdithiocarbamate with zinc salt).

Consider `CS(=O)(=O)N1C(=O)C(c2ccccc2)=C(c2cccc3ccccc23)C1=O` [Compound 3, 1-methanesulfonyl-3-phenyl-4-(1-naphthyl)-1H-pyrrol-2,5-dione], for which the “Effectiveness (%)” value in experiment [1] (dose 125 ppm) is given as 84%; in experiment [1] (dose 500 ppm), 93%; in experiment [2] (dose 125 ppm), 86%; in experiment [2] (dose 500 ppm), 99%.

As for “t-butyl 3-phenyl-4-(1-naphthyl)-2,5-dione-1H-pyrrolylcarbamate [Compound 8]”, the figures for the “Effectiveness (%)” value in experiment [1] (dose 125 ppm) and in experiment [1] (dose 500 ppm) were 93% and 95%, respectively.

Take “polymeric complex of manganese ethylenebisdithiocarbamate with zinc salt [Mancozeb, reference compound]”: the “Effectiveness (%)” value is recorded as 78% in experiment [2] (dose 125 ppm) and 96% in experiment [2] (dose 500 ppm).

Turning to `CCOC(=O)NN1C(=O)C(c2ccccc2Br)=C(c2cccc3ccccc23)C1=O` [Compound 13, ethyl 3-(2-bromophenyl)-4-(1-naphthyl)-2,5-dione-1H-pyrrolylcarbamate], the “Effectiveness (%)” value is 81% in experiment [1] (dose 125 ppm), 92% in experiment [1] (dose 500 ppm), 89% in experiment [2] (dose 125 ppm) and 97% in experiment [2] (dose 500 ppm).

Regarding `CS(=O)(=O)ON1C(=O)C(c2ccccc2Br)=C(c2cccc3ccccc23)C1=O` [Compound 12, 3-(2-bromophenyl)-1-(methane-sulfonyloxy)-4-(1-naphthyl)-1H-pyrrole-2,5-dione], the “Effectiveness (%)” value in experiment [1] (dose 125 ppm) turned out to be 83%; in experiment [1] (dose 500 ppm), 98%; in experiment [2] (dose 125 ppm), 91%; in experiment [2] (dose 500 ppm) it was 93%.

Regarding `CC(=O)ON1C(=O)C(c2ccccc2Br)=C(c2cccc3ccccc23)C1=O` [Compound 11, 1-acetyloxy-3-(2-bromophenyl)-4-(1-naphthyl)-1H-pyrrole-2,5-dione], the “Effectiveness (%)” value was found to be 80% in experiment [1] (dose 125 ppm), 95% in experiment [1] (dose 500 ppm), 82% in experiment [2] (dose 125 ppm) and 92% in experiment [2] (dose 500 ppm).
